Assay results published in PubChem BioAssay AID1259407 (Chemical Carcinogenesis Research Information System (CCRIS), 2018).
The source made the active and inactive calls. The rule behind the calls is not given here.

Tested on: CCRIS mutagenicity, Ames/micronucleus/aberration tests
Test: CCRIS mutagenicity studies
[1] = Test System: AMES SALMONELLA TYPHIMURIUM, Strain/Indicator: TA97, Metabolic Activation: NONE, Method: PREINCUBATION
[2] = Test System: AMES SALMONELLA TYPHIMURIUM, Strain/Indicator: TA98, Metabolic Activation: NONE, Method: PREINCUBATION
[3] = Test System: AMES SALMONELLA TYPHIMURIUM, Strain/Indicator: TA100, Metabolic Activation: NONE, Method: PREINCUBATION
[4] = Test System: AMES SALMONELLA TYPHIMURIUM, Strain/Indicator: TA1535, Metabolic Activation: NONE, Method: PREINCUBATION
[5] = Test System: AMES SALMONELLA TYPHIMURIUM, Strain/Indicator: TA97, Metabolic Activation: HAMSTER, LIVER, S-9, AROCLOR 1254 (10%), Method: PREINCUBATION
[6] = Test System: AMES SALMONELLA TYPHIMURIUM, Strain/Indicator: TA97, Metabolic Activation: HAMSTER, LIVER, S-9, AROCLOR 1254 (30%), Method: PREINCUBATION
[7] = Test System: AMES SALMONELLA TYPHIMURIUM, Strain/Indicator: TA97, Metabolic Activation: RAT, LIVER, S-9, AROCLOR 1254 (10%), Method: PREINCUBATION
[8] = Test System: AMES SALMONELLA TYPHIMURIUM, Strain/Indicator: TA97, Metabolic Activation: RAT, LIVER, S-9, AROCLOR 1254 (30%), Method: PREINCUBATION
[9] = Test System: AMES SALMONELLA TYPHIMURIUM, Strain/Indicator: TA98, Metabolic Activation: HAMSTER, LIVER, S-9, AROCLOR 1254 (10%), Method: PREINCUBATION
[10] = Test System: AMES SALMONELLA TYPHIMURIUM, Strain/Indicator: TA98, Metabolic Activation: HAMSTER, LIVER, S-9, AROCLOR 1254 (30%), Method: PREINCUBATION
[11] = Test System: AMES SALMONELLA TYPHIMURIUM, Strain/Indicator: TA98, Metabolic Activation: RAT, LIVER, S-9, AROCLOR 1254 (10%), Method: PREINCUBATION
[12] = Test System: AMES SALMONELLA TYPHIMURIUM, Strain/Indicator: TA98, Metabolic Activation: RAT, LIVER, S-9, AROCLOR 1254 (30%), Method: PREINCUBATION
[13] = Test System: AMES SALMONELLA TYPHIMURIUM, Strain/Indicator: TA100, Metabolic Activation: HAMSTER, LIVER, S-9, AROCLOR 1254 (10%), Method: PREINCUBATION
[14] = Test System: AMES SALMONELLA TYPHIMURIUM, Strain/Indicator: TA100, Metabolic Activation: HAMSTER, LIVER, S-9, AROCLOR 1254 (30%), Method: PREINCUBATION
[15] = Test System: AMES SALMONELLA TYPHIMURIUM, Strain/Indicator: TA100, Metabolic Activation: RAT, LIVER, S-9, AROCLOR 1254 (10%), Method: PREINCUBATION
[16] = Test System: AMES SALMONELLA TYPHIMURIUM, Strain/Indicator: TA100, Metabolic Activation: RAT, LIVER, S-9, AROCLOR 1254 (30%), Method: PREINCUBATION
[17] = Test System: AMES SALMONELLA TYPHIMURIUM, Strain/Indicator: TA1535, Metabolic Activation: HAMSTER, LIVER, S-9, AROCLOR 1254 (10%), Method: PREINCUBATION
[18] = Test System: AMES SALMONELLA TYPHIMURIUM, Strain/Indicator: TA1535, Metabolic Activation: HAMSTER, LIVER, S-9, AROCLOR 1254 (30%), Method: PREINCUBATION
[19] = Test System: AMES SALMONELLA TYPHIMURIUM, Strain/Indicator: TA1535, Metabolic Activation: RAT, LIVER, S-9, AROCLOR 1254 (10%), Method: PREINCUBATION
[20] = Test System: AMES SALMONELLA TYPHIMURIUM, Strain/Indicator: TA1535, Metabolic Activation: RAT, LIVER, S-9, AROCLOR 1254 (30%), Method: PREINCUBATION

Row | Compound | mutagenic call [1] | mutagenic call [2] | mutagenic call [3] | mutagenic call [4] | mutagenic call [5] | mutagenic call [6] | mutagenic call [7] | mutagenic call [8] | mutagenic call [9] | mutagenic call [10] | mutagenic call [11] | mutagenic call [12] | mutagenic call [13] | mutagenic call [14] | mutagenic call [15] | mutagenic call [16] | mutagenic call [17] | mutagenic call [18] | mutagenic call [19] | mutagenic call [20] | further results
1 | CCCCCCCCCC | inactive; negative | inactive; negative | inactive; negative | inactive; negative | – | – | – | – | – | – | – | – | – | – | – | – | – | – | – | – | mutagenic call (Test System: AMES SALMONELLA TYPHIMURIUM, Strain/Indicator: TA97, Metabolic Activation: HAMSTER, LIVER, S-9, AROCLOR 1254 (10 OR 30%), Method: PREINCUBATION): inactive; negative; mutagenic call (Test System: AMES SALMONELLA TYPHIMURIUM, Strain/Indicator: TA97, Metabolic Activation: RAT, LIVER, S-9, AROCLOR 1254 (5%), Method: PREINCUBATION): inactive; negative; mutagenic call (Test System: AMES SALMONELLA TYPHIMURIUM, Strain/Indicator: TA97, Metabolic Activation: RAT, LIVER, S-9, AROCLOR 1254 (10 OR 30%), Method: PREINCUBATION): inactive; negative; mutagenic call (Test System: AMES SALMONELLA TYPHIMURIUM, Strain/Indicator: TA98, Metabolic Activation: HAMSTER, LIVER, S-9, AROCLOR 1254 (10 OR 30%), Method: PREINCUBATION): inactive; negative; mutagenic call (Test System: AMES SALMONELLA TYPHIMURIUM, Strain/Indicator: TA98, Metabolic Activation: RAT, LIVER, S-9, AROCLOR 1254 (10 OR 30%), Method: PREINCUBATION): inactive; negative; mutagenic call (Test System: AMES SALMONELLA TYPHIMURIUM, Strain/Indicator: TA100, Metabolic Activation: HAMSTER, LIVER, S-9, AROCLOR 1254 (10 OR 30%), Method: PREINCUBATION): inactive; negative; mutagenic call (Test System: AMES SALMONELLA TYPHIMURIUM, Strain/Indicator: TA100, Metabolic Activation: RAT, LIVER, S-9, AROCLOR 1254 (10 OR 30%), Method: PREINCUBATION): inactive; negative; mutagenic call (Test System: AMES SALMONELLA TYPHIMURIUM, Strain/Indicator: TA1535, Metabolic Activation: HAMSTER, LIVER, S-9, AROCLOR 1254 (10 OR 30%), Method: PREINCUBATION): inactive; negative; mutagenic call (Test System: AMES SALMONELLA TYPHIMURIUM, Strain/Indicator: TA1535, Metabolic Activation: RAT, LIVER, S-9, AROCLOR 1254 (10 OR 30%), Method: PREINCUBATION): inactive; negative; mutagenic call (Test System: AMES SALMONELLA TYPHIMURIUM, Strain/Indicator: TA1537, Metabolic Activation: HAMSTER, LIVER, S-9, AROCLOR 1254 (30%), Method: PREINCUBATION): inactive; negative; mutagenic call (Test System: AMES SALMONELLA TYPHIMURIUM, Strain/Indicator: TA1537, Metabolic Activation: NONE, Method: PREINCUBATION): inactive; negative; mutagenic call (Test System: AMES SALMONELLA TYPHIMURIUM, Strain/Indicator: TA1537, Metabolic Activation: RAT, LIVER, S-9, AROCLOR 1254 (5 OR 10%), Method: PREINCUBATION): inactive; negative; mutagenic call (Test System: AMES SALMONELLA TYPHIMURIUM, Strain/Indicator: TA1537, Metabolic Activation: RAT, LIVER, S-9, AROCLOR 1254 (30%), Method: PREINCUBATION): inactive; negative
2 | Nc1ccc(Br)cc1 | inactive; negative | inactive; negative | inactive; negative | inactive; negative | inactive; negative | inactive; negative | inactive; negative | inactive; negative | inactive; negative | inactive; negative | inactive; negative | inactive; negative | inactive; negative | inactive; negative | inactive; negative | inactive; negative | inactive; negative | inactive; negative | inactive; negative | inactive; negative | mutagenic call (End Point: IN VITRO MICRONUCLEUS, Test System: CHL/IU CELLS, Metabolic Activation: RAT, LIVER, S-9, PHENOBARBITAL AND 5,6-BENZOFLAVONE): active; positive; mutagenic call (Test System: E. COLI, Strain/Indicator: WP2 UVRA, Metabolic Activation: NONE, Method: FLUCTUATION TEST): inactive; negative
3 | CCCCCCCCCCCC[S][Sn]([CH2]CCC)([CH2]CCC)[S]CCCCCCCCCCCC | inactive; negative | inactive; negative | inactive; negative | inactive; negative | inactive; negative | inactive; negative | inactive; negative | inactive; negative | inactive; negative | inactive; negative | inactive; negative | inactive; negative | inactive; negative | inactive; negative | inactive; negative | inactive; negative | inactive; negative | inactive; negative | inactive; negative | inactive; negative | –
4 | OC1c2ccccc2Oc2ccccc21 | active; positive | active; positive | inactive; negative | – | – | – | – | – | – | – | – | – | – | – | – | – | – | – | – | – | mutagenic call (Test System: AMES SALMONELLA TYPHIMURIUM, Strain/Indicator: TA97, Metabolic Activation: RAT, LIVER, S-9, PHENOBARBITAL AND 5,6-BENZOFLAVONE, Method: PREINCUBATION): active; positive; mutagenic call (Test System: AMES SALMONELLA TYPHIMURIUM, Strain/Indicator: TA98, Metabolic Activation: RAT, LIVER, S-9, PHENOBARBITAL AND 5,6-BENZOFLAVONE, Method: PREINCUBATION): active; positive; mutagenic call (Test System: AMES SALMONELLA TYPHIMURIUM, Strain/Indicator: TA100, Metabolic Activation: RAT, LIVER, S-9, PHENOBARBITAL AND 5,6-BENZOFLAVONE, Method: PREINCUBATION): inactive; negative; mutagenic call (Test System: AMES SALMONELLA TYPHIMURIUM, Strain/Indicator: TA2637, Metabolic Activation: NONE, Method: PREINCUBATION): active; positive; mutagenic call (Test System: AMES SALMONELLA TYPHIMURIUM, Strain/Indicator: TA2637, Metabolic Activation: RAT, LIVER, S-9, PHENOBARBITAL AND 5,6-BENZOFLAVONE, Method: PREINCUBATION): inactive; negative
